{"source": "paper PMC8778818", "about": "“Synthesis, Structural Characterization and Anticancer Activity of New 5-Trifluoromethyl-2-thioxo-thiazolo[4,5-d]pyrimidine Derivatives” (Pharmaceuticals, 2022)", "key": {"MDA-MB-468": {"tested_on": "MDA-MB-468", "experiment": "NCI-60 screen, Breast Cancer MDA-MB-468", "format": "cell-based, human", "details": "MDA-MB-468, 10^−5 M one dose", "method": "(§1) The search for the cytotoxic activity of new derivatives usually starts with in vitro cell-based screening. Four compounds 2b (NSC D-745983/1), 3b (NSC D-766111/1), 4b (NSC D-785591/1) and 4c (NSC D-771706/1), selected by the National Cancer Institute were tested in the anticancer screen for a panel of approximately 60 human disease-oriented tumor cell lines, organized into subpanels derived from nine human cancer types—leukemia, melanoma, and cancers of the lung, colon, brain, breast, ovary, prostate, and kidney. They were initially tested at only one concentration of 10 µM (10^−5 M) for each cell line, which were inoculated and preincubated on a microtiter plate for […]. The results of the one-dose anticancer assay for the tested new compounds are reported as the percentage of the treated cell growth in comparison with untreated no-drug control. This allows for detection of the growth inhibition—values 0–100 and cytotoxicity; negative numbers mean cell death.\n(§2) Antitumor activity in five dose testing (10^−4−10^−8 M) is expressed by three different dose–response parameters for each of the 60 human tumor cell lines. The GI50 value (molar concentration causing a half-growth inhibition), TGI (molar concentration required for total growth inhibition), which signifies the cytostatic effect, and LC50 (molar concentration of the compound required for 50% cell death). LC50 signifies the cytotoxic effect. […] Nevertheless, the selectivity for GI50 can be seen for several cell lines within subpanel leukemia (SR, log GI50 −6.36) and non-small cell lung cancer (NCI-H522, log GI50 −6.69).\n(§3) The antitumor screening (NCI-60) was performed at the National Cancer Institute, Bethesda, USA. A total panel of approximately 60 human tumor cell lines derived from nine different cancer types (leukemia, non-small cell lung, colon, brain, melanoma, ovarian, renal, prostate and breast) formed the basis of this in vitro test. The origins and processing of the cell lines used in the study were described previously. First, the compounds were evaluated in a primary anticancer assay at 10^−5 M. Results for each tested compound are reported as the percent of growth of the treated cells. […] The human tumor cell lines of the cancer screening panel were grown in an RMPI 1640 medium containing 5% fetal bovine serum and 2 mM of L-glutamine. Each cell line was inoculated and preincubated at 37 °C, 5% CO2, 95% air and 100% relative humidity for 24 h, before the addition of the test compound into 96-well microtiter plates in 100 µL at plating densities ranging from 5000 to 40,000 cells/well. The density of inoculum depends on the type of tumor cell and its growth characteristics. The screened compounds were solubilized in dimethyl sulfoxide at 400-fold the desired final concentration and stored frozen. At the time of the test agents’ addition, an aliquot of frozen concentrate was thawed and diluted to twice the desired final concentration with complete medium containing 50 µg/mL gentamicin. Next, the test compounds were evaluated at the four additional 10-fold dilutions to reach the final concentrations plus control. Aliquots of 100 µL of the different dilutions (100, 10, 1, […] µM/mL) of the tested compounds were added to microtiter wells, and the culture was incubated for 48 h under the same conditions. Cell were fixed in situ by the addition of 50 µL of cold 50% trichloroacetic acid and incubated for 60 min at 4 °C. The supernatant was discarded; plates were washed five times with water and air-dried. Sulforhodamine B at 0.4% in 1% acetic acid, 100 µL, was added to each well, then plates were incubated for 10 min at room temperature. Unbound dye was removed by washing five times with 1% acetic acid and air dried. The protein-bound stain was solubilized with a […] trizma base and the absorbance was read on an automated plate reader. A wavelength of 515 nm was used to read optical densities. […]"}, "HS 578T": {"tested_on": "HS 578T", "experiment": "NCI-60 screen, Breast Cancer HS 578T", "format": "cell-based, human", "details": "10^−5 M one dose"}, "OVCAR-4": {"tested_on": "OVCAR-4", "experiment": "NCI-60 screen, Ovarian Cancer OVCAR-4", "format": "cell-based, human", "details": "OVCAR-4, 10^−5 M one dose"}, "ACHN": {"tested_on": "ACHN", "experiment": "NCI-60 screen, Renal Cancer ACHN", "format": "cell-based, human", "details": "10^−5 M one dose"}, "KM12": {"tested_on": "KM12", "experiment": "NCI-60 screen, Colon Cancer KM12", "format": "cell-based, human", "details": "KM12, 10^−5 M one dose"}, "COLO-205": {"tested_on": "COLO-205", "experiment": "NCI-60 screen, Colon Cancer COLO-205", "format": "cell-based, human", "details": "COLO-205, 10^−5 M one dose"}, "SNB-19": {"tested_on": "SNB-19", "experiment": "NCI-60 screen, CNS Cancer SNB-19", "format": "cell-based, human", "details": "SNB-19, 10^−5 M one dose"}, "SW620": {"tested_on": "SW620", "experiment": "NCI-60 screen, Colon Cancer SW620", "format": "cell-based, human", "details": "SW620, 10^−5 M one dose"}, "HCT-15": {"tested_on": "HCT-15", "experiment": "NCI-60 screen, Colon Cancer HCT-15", "format": "cell-based", "details": "HCT-15, 10^−5 M one dose"}, "UACC-62": {"tested_on": "UACC-62", "experiment": "NCI-60 screen, Melanoma UACC-62", "format": "cell-based, human", "details": "UACC-62, 10^−5 M one dose"}, "RXF 393": {"tested_on": "RXF 393", "experiment": "NCI-60 screen, Renal Cancer RXF 393", "format": "cell-based, human", "details": "RXF 393, 10^−5 M one dose"}, "HT29": {"tested_on": "HT29", "experiment": "NCI-60 screen, Colon Cancer HT29", "format": "cell-based, human", "details": "HT29, 10^−5 M one dose"}, "MOLT-4": {"tested_on": "MOLT-4", "experiment": "NCI-60 screen, Leukemia MOLT-4", "format": "cell-based, human", "details": "MOLT-4, 10^−5 M one dose"}, "BT-549": {"tested_on": "BT-549", "experiment": "NCI-60 screen, Breast Cancer BT-549", "format": "cell-based, human", "details": "BT-549, 10^−5 M one dose"}, "SK-MEL-2": {"tested_on": "SK-MEL-2", "experiment": "NCI-60 screen, Melanoma SK-MEL-2", "format": "cell-based, human", "details": "SK-MEL-2, 10^−5 M one dose"}, "MCF7": {"tested_on": "MCF7", "experiment": "NCI-60 screen, Breast Cancer MCF7", "format": "cell-based, human", "details": "MCF7, 10^−5 M one dose"}, "MDA-MB-435": {"tested_on": "MDA-MB-435", "experiment": "NCI-60 screen, Melanoma MDA-MB-435", "format": "cell-based, human", "details": "MDA-MB-435, 10^−5 M one dose", "method": "as §1, §2, §3"}, "SK-OV-3": {"tested_on": "SK-OV-3", "experiment": "NCI-60 screen, Ovarian Cancer SK-OV-3", "format": "cell-based, human", "details": "SK-OV-3, 10^−5 M one dose"}, "CCRF-CEM": {"tested_on": "CCRF-CEM", "experiment": "NCI-60 screen, Leukemia CCRF-CEM", "format": "cell-based, human", "details": "10^−5 M one dose"}, "SF-295": {"tested_on": "SF-295", "experiment": "NCI-60 screen, CNS Cancer SF-295", "format": "cell-based, human", "details": "SF-295, 10^−5 M one dose"}}, "data": [{"smiles": "Fc1ccc(CNc2nc(C(F)(F)F)nc3c2sc(=S)n3-c2ccccc2)cc1", "note": "[Compound 4c]", "values": [{"measurement": "Growth of Cells (%)", "setting": "MDA-MB-468", "value": 96.15, "unit": "%"}, {"measurement": "Growth of Cells (%)", "setting": "HS 578T", "value": 125.43, "unit": "%"}, {"measurement": "Growth of Cells (%)", "setting": "OVCAR-4", "value": 125.04, "unit": "%"}, {"measurement": "Growth of Cells (%)", "setting": "ACHN", "value": 99.14, "unit": "%"}, {"measurement": "Growth of Cells (%)", "setting": "KM12", "value": 113.23, "unit": "%"}, {"measurement": "Growth of Cells (%)", "setting": "COLO-205", "value": 112.07, "unit": "%"}, {"measurement": "Growth of Cells (%)", "setting": "SNB-19", "value": 106.48, "unit": "%"}, {"measurement": "Growth of Cells (%)", "setting": "SW620", "value": 114.74, "unit": "%"}, {"measurement": "Growth of Cells (%)", "setting": "HCT-15", "value": 103.39, "unit": "%"}, {"measurement": "Growth of Cells (%)", "setting": "UACC-62", "value": 105.93, "unit": "%"}, {"measurement": "Growth of Cells (%)", "setting": "RXF 393", "value": 104.44, "unit": "%"}, {"measurement": "Growth of Cells (%)", "setting": "HT29", "value": 103.27, "unit": "%"}, {"measurement": "Growth of Cells (%)", "setting": "MOLT-4", "value": 96.58, "unit": "%"}, {"measurement": "Growth of Cells (%)", "setting": "BT-549", "value": 98.87, "unit": "%"}, {"measurement": "Growth of Cells (%)", "setting": "SK-MEL-2", "value": 95.77, "unit": "%"}, {"measurement": "Growth of Cells (%)", "setting": "MCF7", "value": 98.77, "unit": "%"}, {"measurement": "Growth of Cells (%)", "setting": "MDA-MB-435", "value": 102.86, "unit": "%"}, {"measurement": "Growth of Cells (%)", "setting": "SK-OV-3", "value": 99.96, "unit": "%"}, {"measurement": "Growth of Cells (%)", "setting": "CCRF-CEM", "value": 102.97, "unit": "%"}, {"measurement": "Growth of Cells (%)", "setting": "SF-295", "value": 91.10, "unit": "%"}]}]}
